Results as given in US11897863B2, “Indazole amine derivative, preparation method therefor and medical use thereof” (ZHEJIANG HISUN PHARMACEUTICAL CO., LTD., priority 2018, dated 2024).

Columns and labels:
[1] = Solubility test in phosphate buffer solution (PBS, pH7.4); type: physicochemical; details: PBS pH 7.4, room temperature, LC-UV
Description: 1.5 mg of the test compound was taken, and PBS was added thereto to prepare the test solution with theoretical concentration of 2 mg·mL^−1. The test solution was ultrasonicated for 10 min, and rotated on a rotating tray at room temperature for at least 8 h. After the rotation treatment, the test solution was ultrasonicated for 10 min and centrifuged at 13000 rpm for 15 min. 100 μL of supernatant was transferred to a 0.6 mL new tube for spinning and rinsing for 5 min. 500 μL of supernatant was transferred into the above rinsed 0.6 mL tube. Then the tube was centrifuged at 13000 rpm for 15 min, and the supernatant was taken (or diluted) for analysis by LC-UV. Sample concentration was quantified by standard curve fitting (3 points).

[2] = test system: TNF-α secretion in THP-1 cells; assay: cells; details: Homo sapiens, THP-1, 5 h, read-out: IC50 in inhibiting TNF-α secretion in THP-1 cells
Description: Method for Determining THP-1 Cell Activity
In this experiment, TNF-α secretion was triggered by lipopolysaccharide (LPS) incubation.
After induced differentiation under the condition of 37° C. and 5% CO2 for 48 h, adherent macrophages were produced. Then PMA supernatant was removed and PBS was used to wash the cells once. In each case, all the drugs were dissolved in 100% DMSO to obtain an initial concentration of 10 mM. The drugs were filtered with 0.22 μm sterile filter membrane before use. LPS was dissolved in PBS with an initial concentration of 1 mg/mL. During use, it was diluted to 20 μg/mL with PBS. […] 200 μL of drugs were added to each well, and 50 μL of 20 μg/ml LPS (final concentration: 4 μg/mL) was added to each well. They were incubated in a 5% CO 2 incubator at 37° C. for 5 h. […]
Determination by using TNF-α ELISA kit: the amount of TNF-α was determined by R&D System Human TNF-α ELISA kit. […] 50 μL of Stop Solution (2N sulfuric acid stop solution) was added to each well and evenly mixed, and the absorbance at 450 nm was measured with microplate reader within 30 min. Compared with the fluorescence intensity ratio of the control group, the inhibition rate of the compound at each concentration was calculated, and then the IC 50 value of the compound was calculated by fitting the nonlinear curve of logarithmic concentration-inhibition rate with GraphPad Prism5.

Row | Solubility in phosphate buffer solution (PBS, pH 7.4) [1] [uM] | Structure (SMILES) | IC50 [2] [nM]
1 | 6.7 | CC(C)(O)CCn1cc2cc(NC(=O)c3cccc(C(F)(F)F)n3)c(C(C)(C)O)cc2n1 [BAY-1834845] | –
2 | – | CN(C)CCn1cc2cc(NC(=O)c3cccc(C(F)(F)F)n3)c(C(C)(C)O)cc2n1 [Compound 1, N-(2-(2-(dimethylamino)ethyl)-6-(2-hydroxypropan-2-yl)-2H-indazol-5-yl)-6-(trifluoromethyl)pyridin-2-carboxamide] | 55
